Earlier results, collected in patent US10272130B1, “Oral anaerobic glutathione supplement in liposome suspension” (priority 2017, dated 2019).

Key:
[1] = in vivo

half-life [1]: approximately 5.6 hours
renally excreted by the body [1]: 30%
pregnancy risk category (in vivo): category B
Structure (SMILES): CC(=O)N[C@@H](CS)C(=O)O [NAC, N-acetylcysteine]
adverse effects associated with administration (orally administered or inhaled): drowsiness, stomatitis, clamminess, rhinorrhea, and hemoptysis
